{"source": "patent US10414763B2", "about": "(CANCER RESEARCH TECHNOLOGY LIMITED, priority 2014, dated 2019)"}
{"biological_target": "T1, full-length human PKCι (Homo sapiens, UniProt P41743)", "T1 construct": "Recombinant, full-length human PKCι expressed in Sf21 insect cells is also commercially available; purchased EMD Millipore; host or cells: Sf21 insect cells (baculovirus)", "T1 sequence (P41743 1-596)": "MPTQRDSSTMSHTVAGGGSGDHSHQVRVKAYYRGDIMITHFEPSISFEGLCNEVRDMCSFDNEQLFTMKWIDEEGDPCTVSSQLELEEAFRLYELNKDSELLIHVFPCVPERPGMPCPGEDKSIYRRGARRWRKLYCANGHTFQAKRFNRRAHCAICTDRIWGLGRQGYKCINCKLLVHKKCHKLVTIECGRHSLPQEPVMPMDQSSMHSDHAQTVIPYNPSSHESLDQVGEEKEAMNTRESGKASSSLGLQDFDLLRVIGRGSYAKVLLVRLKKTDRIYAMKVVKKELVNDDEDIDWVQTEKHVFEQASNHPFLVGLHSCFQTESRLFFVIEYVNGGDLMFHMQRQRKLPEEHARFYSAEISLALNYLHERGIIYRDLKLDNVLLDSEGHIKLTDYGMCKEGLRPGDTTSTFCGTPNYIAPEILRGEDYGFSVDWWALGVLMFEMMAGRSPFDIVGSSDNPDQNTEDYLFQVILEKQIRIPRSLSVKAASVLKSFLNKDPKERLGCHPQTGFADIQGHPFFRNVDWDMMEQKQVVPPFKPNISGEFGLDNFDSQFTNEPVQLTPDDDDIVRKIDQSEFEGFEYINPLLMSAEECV", "assay": "PKCι IC50 IMAP fluorescence polarisation assay, full-length enzyme, 150 μM ATP", "assay_type": "biochemical", "conditions": "read-out: IC50 in IMAP assay against full length PKCi at 150 μM ATP", "from_the_text": "Assays are based on the ability of PKCι to phosphorylate a commercially available peptide substrate in vitro. The peptide substrate is FAM-PKCε pseudopeptide derived peptide, and comprises the amino acid sequence 5FAM-ERMRPRKRQGSVRRRV-NH2. Recombinant, full-length human PKCι expressed in Sf21 insect cells is also commercially available. Recombinant, kinase-domain human PKCι is expressed and purified in-house.\nThe procedure below explains how dose response curves for inhibitors of PKCι are obtained. The screen described is for a 384 well format but the assay can be adapted to 1536 or other formats as required.\nCompounds to be tested are dissolved in 100% DMSO. Compounds are diluted as required to give a final concentration of 4% DMSO (v/v) in the assay. 1 μl is plated into 384 well black low-binding flat bottomed assay plates which are used immediately. Dilutions and additions of compound to assay plates are carried out using Matrix WellMate® and Matrix PlateMate® Plus liquid handling systems.\nOn the day of the screen PKCι/substrate working solution, and ATP working solution, are prepared in buffer containing 20 mM tris-HCl pH7.5, 10 mM MgCl2, 0.01% Triton X100, 250 μM EGTA and 1 mM DTT. The final concentration of PKCι used varies depending on the batch of protein but is typically 15 pM. The final concentration of peptide substrate in the assay is 100 nM. ATP is used at a final concentration of 150 μM or 25 μM in the assays containing full-length or kinase-domain PKCι respectively, which corresponds to five times or equal to the KM^APP for ATP for each enzyme, respectively. The final buffer concentration in the assay is 18 mM tris-HCl pH7.5, 9 mM MgCl2, 0.009% Triton X100, 225 μM EGTA and 0.9 mM DTT. Relevant controls are included, namely no compound and no enzyme. 5 μl PKCι/substrate working solution at 30 pM and 200 nM, respectively, is added to the wells, followed by 4 μl ATP working solution at 375 μM or 62.5 μM for full-length or kinase-domain PKCι respectively, using a 16 channel Matrix pipette. The reaction is allowed to incubate for 60 minutes at room temperature, before the reaction is stopped and developed by the addition of 20 μl IMAP™ development reagent (Molecular Devices). IMAP development reagent consists of 0.25% (v/v) IMAP progressive binding reagent, 17% (v/v) IMAP progressive binding buffer A and 3% (v/v) IMAP progressive binding buffer B. The plates are then incubated for 2 hours at room temperature before being read using an appropriate plate reader, for example a Molecular Devices HT Analyst or a BMG Pherastar. Plates are read using a fluorescence polarisation protocol with excitation at 485 nm and emission at 530 nm, and dichroic mirror at 505 nm.\nPercentage inhibition values are calculated from fluorescence polarisation values, using the no compound and no enzyme control values as 0% and 100% inhibition, respectively. IC50 determination is performed with ExcelFit software (IDBS) using curve fit 205. Z′ factors are determined for each plate tested and are all above 0.5.\nAlternatively, compounds were tested for their ability to inhibit the kinase activity of recombinant human baculovirus-expressed PKCiota using the immobilized metal-ion affinity particle (IMAP®) fluorescence polarization detection system (Molecular Devices, Sunnyvale, Calif.). PKCiota/IMAP® substrate mixture (2×) was prepared in 1×IMAP assay buffer (Molecular Devices) containing 1 mM DTT so that the final assay concentrations were 15 pM PKCiota (EMD Millipore, Billerica, Mass.) and 100 nM 5-fluorescein-amidite (FAM)-PKC ? -pseudosubstrate (5-FAM-ERMRPRKRQGSVRRRV-NH2) (Molecular Devices). The 2× working solution was added at 5 μL/well into a 384-well black, non-binding, flat bottom assay plate (Corning, Corning, N.Y.). […]", "units": {"IC50": "µM"}}
{"smiles": "O[C@]12CCN(c3nc(-c4ccnc5[nH]c6ccccc6c45)nc4cncc(C5CC5)c34)[C@H]1CCNC2", "note": "(racemic) [Example 113, (±)-(3aS,7aS)-1-[5-Cyclopropyl-2-(9H-pyrido[2,3-b]indol-4-yl)-pyrido[3,4-d]pyrimidin-4-yl]-octahydro-pyrrolo [3,2-c]pyridin-3a-ol]", "IC50": "< 0.1"}
{"smiles": "CN(c1nc(-c2ccnc3[nH]c4ccccc4c23)nc2cncc(C3CC3)c12)[C@@H]1CCNC[C@@]1(C)O", "note": "(racemic) [Example 114, (±)-(3,4-trans)-4-{[5-Cyclopropyl-2-(9H-pyrido[2,3-b]indol-4-yl)-pyrido[3,4-d]pyrimidin-4-yl]-methyl-amino}-3-methyl-piperidin-3-ol]", "IC50": "< 0.1"}
{"smiles": "Cc1cc2c(-c3nc(N4CC[C@]5(O)CNCC[C@H]45)c4c(C5CCC5)cncc4n3)ccnc2[nH]1", "note": "(racemic) [Example 117, (±)-(3aS,7aS)-1-[5-Cyclobutyl-2-(2-methyl-1H-pyrrolo[2,3-b]pyridin-4-yl)-pyrido[3,4-d]pyrimidin-4-yl]-octahydro-pyrrolo [3,2-c]pyridin-3a-ol]", "IC50": "< 0.1"}
{"smiles": "O[C@]12CCN(c3nc(-c4ccnc5[nH]c(-c6ccccc6Cl)cc45)nc4cncc(C5CC5)c34)[C@H]1CCNC2", "note": "(racemic) [Example 143, (±)-(3aS,7aS)-1-{2-[2-(2-Chloro-phenyl)-1H-pyrrolo[2,3-b]pyridin-4-yl]-5-cyclopropyl-pyrido[3,4-d]pyrimidin-4-yl}-octahydro-pyrrolo [3,2-c]pyridin-3a-ol]", "IC50": "< 0.1"}
{"smiles": "O[C@]12CCN(c3nc(-c4ccnc(Nc5nc6ccccn6n5)c4)nc4cncc(C5CC5)c34)[C@H]1CCNC2", "note": "(racemic) [Example 151, (±)-(3aS,7aS)-1-{5-Cyclopropyl-2-[2-([1,2,4]triazolo[1,5-a]pyridin-2-ylamino)-pyridin-4-yl]-pyrido[3,4-d]pyrimidin-4-yl}-octahydro-pyrrolo [3,2-c]pyridin-3a-ol]", "IC50": "< 0.1"}
{"smiles": "N[C@H]1C[C@H](Nc2nc(-c3ccnc4[nH]c5ccccc5c34)nc3cncc(C4CCC4)c23)C[C@H]1F", "note": "(racemic) [Example 207, (±)-(1S,3S,4S)-N*l*-[5-Cyclobutyl-2-(9H-pyrido[2,3-b]indol-4-yl)-pyrido[3,4-d]pyrimidin-4-yl]-4-fluoro-cyclopentane-1,3-diamine]", "IC50": "0.1 to 1"}
{"smiles": "C[C@@H]1CNCC[C@H]1Nc1nc(-c2ccnc(Nc3nc(F)ccc3F)c2)nc2cncc(C3CC3)c12", "note": "(racemic) [Example 223, (±)-{5-Cyclopropyl-2-[2-(3,6-difluoro-pyridin-2-ylamino)-pyridin-4-yl]-pyrido[3,4-d]pyrimidin-4-yl}-((3,4-trans)-3-methyl-piperidin-4-yl)-amine]", "IC50": "< 0.1"}
{"smiles": "C[C@@H]1CNCC[C@@H]1Nc1nc(-c2ccnc(Nc3nc(F)ccc3F)c2)nc2cncc(C3CC3)c12", "note": "(racemic) [Example 224, (±)-{5-Cyclopropyl-2-[2-(3,6-difluoro-pyridin-2-ylamino)-pyridin-4-yl]-pyrido[3,4-d]pyrimidin-4-yl}-((3,4-cis)-3-methyl-piperidin-4-yl)-amine]", "IC50": "< 0.1"}
{"smiles": "C[C@H]1C[C@@H](Nc2nc(-c3ccnc(Nc4nc(F)ccc4F)c3)nc3cncc(C4CC4)c23)CCN1", "note": "(racemic) [Example 225, (±)-{5-Cyclopropyl-2-[2-(3,6-difluoro-pyridin-2-ylamino)-pyridin-4-yl]-pyrido[3,4-d]pyrimidin-4-yl}-((2,4-cis)-2-methyl-piperidin-4-yl)-amine]", "IC50": "< 0.1"}
{"smiles": "C[C@@H]1C[C@@H](Nc2nc(-c3ccnc(Nc4nc(F)ccc4F)c3)nc3cncc(C4CC4)c23)CCN1", "note": "(racemic) [Example 226, (±)-{5-Cyclopropyl-2-[2-(3,6-difluoro-pyridin-2-ylamino)-pyridin-4-yl]-pyrido[3,4-d]pyrimidin-4-yl}-((2,4-trans)-2-methyl-piperidin-4-yl)-amine]", "IC50": "0.1 to 1"}
{"smiles": "OC1CNCCC(Nc2nc(-c3ccnc4[nH]c5ccccc5c34)nc3cncc(C4CCC4)c23)C1", "note": "(racemic) [Example 230, Cis- or trans-(±)-5-[5-Cyclobutyl-2-(9H-pyrido[2,3-b]indol-4-yl)-pyrido[3,4-d]pyrimidin-4-ylamino]-azepan-3-ol]", "IC50": "< 0.1"}
{"smiles": "OC1CNCCC(Nc2nc(-c3ccnc4[nH]c5ccccc5c34)nc3cncc(C4CCC4)c23)C1", "note": "(racemic) [Example 231, Trans- or cis-(±)-5-[5-Cyclobutyl-2-(9H-pyrido[2,3-b]indol-4-yl)-pyrido[3,4-d]pyrimidin-4-ylamino]-azepan-3-ol]", "IC50": "< 0.1"}
{"smiles": "CC1(C)CNCCC1Nc1nc(-c2ccnc(Nc3ncn(-c4ccccc4)n3)c2)nc2cncc(C3CC3)c12", "note": "(racemic) [Example 233, rac-{5-Cyclopropyl-2-[2-(1-phenyl-1H-1,2,4-triazol-3-ylamino)-pyridin-4-yl]-pyrido[3,4-d]pyrimidin-4-yl}-(3,3-dimethyl-piperidin-4-yl)-amine]", "IC50": "< 0.1"}
{"smiles": "CN(c1nc(-c2ccnc(Nc3ncn(-c4ccccc4)n3)c2)nc2cncc(C3CC3)c12)C1CCNCC1(C)C", "note": "(racemic) [Example 234, rac-{5-Cyclopropyl-2-[2-(1-phenyl-1H-1,2,4-triazol-3-ylamino)-pyridin-4-yl]-pyrido[3,4-d]pyrimidin-4-yl}-(3,3-dimethyl-piperidin-4-yl)-methyl-amine]", "IC50": "< 0.1"}
{"smiles": "CC1(C)CNCCC1Nc1nc(-c2ccnc(Nc3ncn(Cc4ccccc4)n3)c2)nc2cncc(C3CC3)c12", "note": "(racemic) [Example 237, rac-{2-[2-(1-Benzyl-1H-1,2,4-triazol-3-ylamino)-pyridin-4-yl]-5-cyclopropyl-pyrido[3,4-d]pyrimidin-4-yl}-(3,3-dimethyl-piperidin-4-yl)-amine]", "IC50": "< 0.1"}
{"smiles": "CN(c1nc(-c2ccnc(Nc3ncn(Cc4ccccc4)n3)c2)nc2cncc(C3CC3)c12)C1CCNCC1(C)C", "note": "(racemic) [Example 238, rac-{2-[2-(1-Benzyl-1H-1,2,4-triazol-3-ylamino)-pyridin-4-yl]-5-cyclopropyl-pyrido[3,4-d]pyrimidin-4-yl}-(3,3-dimethyl-piperidin-4-yl)-methyl-amine]", "IC50": "< 0.1"}
{"smiles": "O[C@]12CCN(c3nc(-c4ccnc(Nc5ncn(Cc6ccccc6)n5)c4)nc4cncc(C5CC5)c34)[C@H]1CCNC2", "note": "(racemic) [Example 240, rac-(3aS,7aS)-1-{2-[2-(1-Benzyl-1H-1,2,4-triazol-3-ylamino)-pyridin-4-yl]-5-cyclopropyl-pyrido[3,4-d]pyrimidin-4-yl}-octahydro-pyrrolo[3,2-c]pyridin-3a-ol]", "IC50": "< 0.1"}
{"smiles": "C[C@@]1(O)CNCC[C@H]1Nc1nc(-c2ccnc3[nH]c4ccccc4c23)nc2cncc(C3CCC3)c12", "note": "(racemic) [Example 246]", "IC50": "< 0.1"}
